Assay results: ChEMBL document CHEMBL1151152, “7-deoxy-6-epi-castanospermine, a trihydroxyindolizidine alkaloid glycosidase inhibitor from Castanospermum australe” (J Nat Prod, 1990)
Activity calls are given as the source filed them. No cut-off for these calls is given here.

What was measured:
Aspergillus niger [1] = experiment: Inhibition of Aspergillus niger amyloglucosidase at 20 uM by competitive inhibition-based kinetic assay
Aspergillus niger [2] = experiment: Inhibition of Aspergillus niger amyloglucosidase by competitive inhibition-based kinetic assay
[3] = biological target: Sucrase-isomaltase, intestinal (Rattus norvegicus) (UniProt P23739); experiment: Inhibition of Sprague-Dawley rat small intestine sucrase at 1 mM
Chain of Sucrase-isomaltase, intestinal (Rattus norvegicus) (P23739 1-1013 limits assumed): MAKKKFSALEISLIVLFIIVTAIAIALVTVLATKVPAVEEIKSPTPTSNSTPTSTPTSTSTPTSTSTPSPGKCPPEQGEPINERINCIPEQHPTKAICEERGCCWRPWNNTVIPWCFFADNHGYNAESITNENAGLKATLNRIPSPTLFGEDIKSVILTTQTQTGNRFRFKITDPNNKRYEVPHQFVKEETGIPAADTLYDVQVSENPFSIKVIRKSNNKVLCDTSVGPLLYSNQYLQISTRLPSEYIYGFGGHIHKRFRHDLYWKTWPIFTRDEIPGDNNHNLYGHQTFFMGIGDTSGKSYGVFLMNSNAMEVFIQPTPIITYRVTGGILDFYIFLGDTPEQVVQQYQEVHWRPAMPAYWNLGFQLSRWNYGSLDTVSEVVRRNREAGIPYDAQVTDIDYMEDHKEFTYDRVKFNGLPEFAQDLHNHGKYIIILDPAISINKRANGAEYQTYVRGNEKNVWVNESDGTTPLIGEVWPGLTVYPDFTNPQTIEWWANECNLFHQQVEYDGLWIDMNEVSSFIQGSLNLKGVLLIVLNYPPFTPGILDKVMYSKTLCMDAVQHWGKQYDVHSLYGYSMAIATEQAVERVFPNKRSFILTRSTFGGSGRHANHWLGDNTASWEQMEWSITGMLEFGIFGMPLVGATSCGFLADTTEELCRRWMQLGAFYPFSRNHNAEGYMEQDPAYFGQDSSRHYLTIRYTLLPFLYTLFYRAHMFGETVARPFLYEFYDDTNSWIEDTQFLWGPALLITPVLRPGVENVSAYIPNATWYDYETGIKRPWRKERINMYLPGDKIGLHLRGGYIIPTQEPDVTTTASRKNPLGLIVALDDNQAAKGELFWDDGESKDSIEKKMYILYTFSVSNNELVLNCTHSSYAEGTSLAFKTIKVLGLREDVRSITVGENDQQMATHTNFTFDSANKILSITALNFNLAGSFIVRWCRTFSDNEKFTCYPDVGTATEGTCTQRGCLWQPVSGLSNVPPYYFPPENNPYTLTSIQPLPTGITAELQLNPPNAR
Chain of Sucrase-isomaltase, intestinal (Rattus norvegicus) (P23739 1014-1841 limits assumed): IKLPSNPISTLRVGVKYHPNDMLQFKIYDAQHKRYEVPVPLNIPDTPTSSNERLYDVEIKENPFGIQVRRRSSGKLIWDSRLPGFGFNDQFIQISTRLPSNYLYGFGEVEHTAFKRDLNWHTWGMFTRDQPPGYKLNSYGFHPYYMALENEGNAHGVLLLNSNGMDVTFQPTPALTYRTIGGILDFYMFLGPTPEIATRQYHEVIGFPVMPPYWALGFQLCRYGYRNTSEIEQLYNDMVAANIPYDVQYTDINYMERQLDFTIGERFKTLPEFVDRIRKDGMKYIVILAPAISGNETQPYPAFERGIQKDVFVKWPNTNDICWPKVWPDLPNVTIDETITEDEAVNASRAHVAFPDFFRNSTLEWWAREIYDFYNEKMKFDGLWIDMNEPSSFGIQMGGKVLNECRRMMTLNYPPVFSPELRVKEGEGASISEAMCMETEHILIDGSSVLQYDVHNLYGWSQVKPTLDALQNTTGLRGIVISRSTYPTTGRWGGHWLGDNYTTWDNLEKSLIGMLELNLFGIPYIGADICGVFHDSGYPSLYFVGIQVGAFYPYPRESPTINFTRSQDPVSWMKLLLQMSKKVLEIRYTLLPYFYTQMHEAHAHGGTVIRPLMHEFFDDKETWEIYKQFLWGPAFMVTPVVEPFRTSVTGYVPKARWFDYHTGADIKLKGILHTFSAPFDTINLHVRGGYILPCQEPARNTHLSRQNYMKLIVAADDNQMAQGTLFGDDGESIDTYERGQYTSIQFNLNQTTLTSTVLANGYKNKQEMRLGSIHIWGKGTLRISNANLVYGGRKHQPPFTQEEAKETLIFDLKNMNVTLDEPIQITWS

Canavalia ensiformis = experiment: Inhibition of jack bean alpha-mannosidase up to 1 mM
[4] = biological target: Sucrase-isomaltase, intestinal (Rattus norvegicus) (UniProt P23739); experiment: Inhibition of Sprague-Dawley rat small intestine sucrase
Saccharomyces cerevisiae [5] = experiment: Inhibition of yeast alpha-glucosidase at 1 mM
[6] = biological target: T1, Beta-glucuronidase (Bos taurus) (UniProt A3KMY8); experiment: Inhibition of bovine liver beta-glucuronidase up to 1 mM
T1 sequence (whole entry): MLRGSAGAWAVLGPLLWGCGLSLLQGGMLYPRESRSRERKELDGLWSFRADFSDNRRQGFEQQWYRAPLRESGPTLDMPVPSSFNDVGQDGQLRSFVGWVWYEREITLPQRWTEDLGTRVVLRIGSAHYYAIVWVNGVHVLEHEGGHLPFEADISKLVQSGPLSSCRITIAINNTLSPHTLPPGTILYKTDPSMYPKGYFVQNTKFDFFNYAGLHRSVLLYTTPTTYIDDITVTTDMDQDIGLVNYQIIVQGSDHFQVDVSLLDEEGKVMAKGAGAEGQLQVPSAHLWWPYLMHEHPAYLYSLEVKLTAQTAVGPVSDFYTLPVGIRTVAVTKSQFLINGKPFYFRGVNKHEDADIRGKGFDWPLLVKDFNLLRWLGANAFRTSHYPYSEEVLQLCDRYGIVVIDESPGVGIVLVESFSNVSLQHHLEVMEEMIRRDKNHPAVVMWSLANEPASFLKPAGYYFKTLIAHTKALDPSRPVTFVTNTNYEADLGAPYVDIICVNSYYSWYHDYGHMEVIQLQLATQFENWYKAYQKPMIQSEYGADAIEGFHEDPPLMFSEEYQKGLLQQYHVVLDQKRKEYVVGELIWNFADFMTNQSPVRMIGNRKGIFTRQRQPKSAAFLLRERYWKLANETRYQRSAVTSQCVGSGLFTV

Aspergillus niger [7] = experiment: Inhibition of Aspergillus niger alpha-mannosidase up to 1 mM
Bos taurus [8] = species: Bos taurus; experiment: Inhibition of bovine epididymis beta-N-acetylglucosaminidase B up to 1 mM
Aspergillus niger [9] = experiment: Inhibition of Aspergillus niger beta-xylosidase up to 1 mM
Saccharomyces cerevisiae [10] = experiment: Inhibition of yeast alpha-glucosidase
Bos taurus [11] = species: Bos taurus; experiment: Inhibition of bovine kidney alpha-L-fucosidase up to 1 mM
Aspergillus niger [12] = experiment: Inhibition of Aspergillus niger amyloglucosidase at 230 uM by competitive inhibition-based kinetic assay
[13] = test system: Vigna radiata var. radiata; experiment: Inhibition of mung bean seedlings glucosidase 1
Aspergillus niger [14] = experiment: Inhibition of Aspergillus niger alpha-galactosidase up to 1 mM
Bos taurus [15] = species: Bos taurus; experiment: Inhibition of bovine liver beta-galactosidase
Prunus dulcis = experiment: Inhibition of almond beta-glucosidase up to 1 mM
[16] = test system: Vigna radiata var. radiata; experiment: Inhibition of mung bean seedlings glucosidase 1 at 1 mM
Bos taurus [17] = species: Bos taurus; experiment: Inhibition of bovine liver beta-galactosidase at 1 mM
[18] = test system: Vigna radiata var. radiata; experiment: Inhibition of mung bean seedlings glucosidase 2 up to 1 mM
Aspergillus niger [19] = experiment: Inhibition of Aspergillus niger amyloglucosidase at 7 uM by competitive inhibition-based kinetic assay

O[C@H]1[C@H](O)[C@H](O)CN2CC[C@H](O)[C@H]12
inhibition (Aspergillus niger [1]): 50%
Activity (Aspergillus niger [2]): Active

O[C@H]1C[C@H](O)[C@H]2[C@@H](O)CCN2C1
inhibition [3]: 30%
Activity (Canavalia ensiformis): inactive
Activity [4]: Active
inhibition (Saccharomyces cerevisiae [5]): 50%
Activity [6]: inactive
Activity (Aspergillus niger [2]): Active
Activity (Aspergillus niger [7]): inactive
Activity (Bos taurus [8]): inactive
Activity (Aspergillus niger [9]): inactive
Activity (Saccharomyces cerevisiae [10]): Active
Activity (Bos taurus [11]): inactive
inhibition (Aspergillus niger [12]): 50%
Activity [13]: Active
Activity (Aspergillus niger [14]): inactive
Activity (Bos taurus [15]): Active
Activity (Prunus dulcis): inactive
inhibition [16]: 35%
inhibition (Bos taurus [17]): 20%
Activity [18]: inactive

O[C@H]1[C@H](O)[C@@H](O)CN2CC[C@H](O)[C@H]12
inhibition (Aspergillus niger [19]): 50%
Activity (Aspergillus niger [2]): Active
